Like-named read-outs stand apart in the source and are kept apart here.
What was measured:
[1] = system: Pratylenchus penetrans; experiment: Pratylenchus penetrans test (soil application); assay type: in vivo; details: corn (Zea mays), after 2 weeks
Experimental: Pratylenchus penetrans—Test (Soil Application)
(§1) Solvent: 4 parts by weight acetone
(§2) Emulsifier: 1 part by weight alkylaryl polyglycol ether
(§3) To produce a suitable preparation of active compound, 1 part by weight of active compound is mixed with solvent and emulsifier at the ratio 4:1 and is diluted with water to the desired concentration.
This compound solution is mixed with 500 ml soil infected with Pratylenchus penetrans (800 nematodes per 100 ml). The stated concentration refers to the amount of compound per unit of volume soil (mg/1=ppm). The treated soil is filled into 500 ml pots and 3 corn seeds (Zea mays) are sown.
(§4) After 2 weeks the number of nematodes in the corn roots is determined by means of maceration. The roots are cleaned with water, cut into about 1 cm pieces and minced with water in a mixer for 10-15 seconds. The pieces are poured over a 0.2 mm-nematode sieve, rinsed with 400 ml water and the flow rate is collected. After 6 hours the supernatant is aspirated and the number of nematodes is determined microscopically with a counting chamber.
(§5) The average number of nematodes per pot is determined and efficieny is calculated by using Abbott's formula:
(§6) C=untreated control plants

[2] = system: Meloidogyne incognita; experiment: Meloidogyne incognita in tomato test (MELGIN soil application); assay type: in vivo; details: application rate 2 ppm in soil; tomato seedling (Solanum lycopersicum); after five weeks
Experimental: Meloidogyne incognita in Tomato—Test (MELGIN Soil Application)
as §1, §2
(§7) To produce a suitable preparation of active compound, 1 part by weight of active compound is mixed with solvent and emulsifier at the ratio 4:1 and is diluted with water to the desired concentration. The stated concentration refers to the amount of compound per unit of volume soil (mg/1=ppm).
This compound composition is mixed with 500 ml of soil and 4 ml of a nematode suspension (1000 differenciated eggs and larvae of Meloidogyne incognita/ml). The stated concentration refers to the amount of compound per unit of volume soil (mg/1=ppm). The treated soil is filled in 500 ml pots and a tomato seedling (Solanum lycopersicum) is planted.
After five weeks the average number of galls in the tomato roots per pot are determined and efficieny is calculated by using Abbott's formula:
as §6

[3] = system: Radopholus similis; experiment: Radopholus similis test (soil application); assay type: in vivo; details: application rate 2 ppm in soil; banana seedling; after 2 weeks
Experimental: Radopholus similis—Test (Soil Application)
as §1, §2, §3
This compound solution is mixed with soil. The stated concentration refers to the amount of compound per unit of volume soil (mg/1=ppm). The treated soil is filled into 250 ml pots and a banana seedling is planted. Afterwards 2.5 ml of a nematode suspension (500 Radopholus similis/ml) are applied.
After 2 weeks the number of nematodes in the banana roots is determined by means of maceration. The roots are cut off, cleaned with water and after adding 25-40 ml 0.01% lactic acid—acid fuchsin solution they are boiled in a microwave. On the next day the roots are rinsed over a 0.025 mm-nematode sieve, roughly minced and macerated with 15-20 ml water in an Ultra Turrax. After filling up with water to 45 ml, the number of nematodes in the supernatant is determined microscopically with a counting chamber.
as §5, §6

[4] = system: Pratylenchus zeae; experiment: Pratylenchus zeae test (PRATZE soil application); assay type: in vivo; details: application rate 2 ppm in soil; corn (Zea mays); after 2 weeks
Experimental: Pratylenchus zeae—Test (PRATZE Soil Application)
as §1, §2, §3
This compound solution is mixed with 500 ml soil infected with Pratylenchus zeae (800 nematodes per 100 ml). The stated concentration refers to the amount of compound per unit of volume soil (mg/1=ppm). The treated soil is filled into 500 ml pots and 3 corn seeds (Zea mays) are sown.
as §4, §5, §6

[5] = physchem; assay type: physicochemical; details: reversed-phase C18, acidic range pH 3.4 (formic acid), 55° C.; for chromatographic logP: read-out: log P
Experimental: 1) Description of Method for Determination of the log P Values (Formic Acid Method)
Eluents for determination in the acidic range (pH 3.4):
Eluent A: acetonitrile+1 ml of formic acid/liter. Eluent B: water+0.9 ml of formic acid/liter.
The lambda max values were determined in the maxima of the chromatographic signals using the UV spectra from 200 nm to 400 nm.

[6] = system: Globodera rostochiensis; experiment: Globodera rostochiensis test (soil application); assay type: in vivo; details: application rate 2 ppm in soil; potato seedling; after six weeks
Experimental: Globodera rostochiensis—Test (Soil Application)
as §1, §2
as §7, with “concentration. This compound composition is mixed with soil.” for “concentration.”
450 ml of this compound composition is mixed with 50 ml of soil infected with Globodera rostochiensis (20.000 nematodes/100 ml), filled in 500 ml pots and a potato seedling is planted.
After six weeks the average number of cysts in the potato roots per pot are determined and efficieny is calculated by using Abbott's formula:
as §6

Row | Compound | log P ([5]; HPLC) | activity (efficiency by Abbott's formula, number of cysts in potato roots) [6] [%] | also measured
1 | O=C(Nc1ccn(-c2c(F)cccc2F)n1)c1ccccc1C(F)(F)F [Compound I-1-75, N-[1-(2,6-difluorophenyl)-1H-pyrazol-3-yl]-2-(trifluoromethyl)benzamide] | – | 100 | activity (efficiency by Abbott's formula, number of nematodes in corn roots) ([1]; application rate 2 ppm in soil): 88%; activity (efficiency by Abbott's formula, number of galls in tomato roots) [2]: 100%; activity (efficiency by Abbott's formula, number of nematodes in banana roots) [3]: 90%; activity (efficiency by Abbott's formula, number of nematodes in corn roots) [4]: 89%; chromatographic logP ([5]; HPLC): 2.68
2 | CCN(C(=O)c1ccccc1C(F)(F)F)c1ccn(-c2ncc(F)cc2F)n1 [Compound I-1-468, N-[1-(3,5-difluoropyridin-2-yl)-1H-pyrazol-3-yl]-N-ethyl-2-(trifluoromethyl)benzamide] | – | 100 | chromatographic logP ([5]; reversed-phase C18 HPLC column): 3.23
3 | N#Cc1nccnc1-n1ccc(NC(=O)c2ccccc2C(F)(F)F)n1 [Compound I-1-574, N-[1-(3-Cyanopyrazin-2-yl)-1H-pyrazol-3-yl]-2-(trifluoromethyl)benzamide] | – | 80 | activity (efficiency by Abbott's formula, number of nematodes in corn roots) ([1]; application rate 4 ppm in soil): 97%
4 | O=C(Nc1cnn(-c2c(F)cccc2F)n1)c1ccccc1C(F)(F)F [Compound I-2-35, N-[2-(2,6-Difluorophenyl)-2H-1,2,3-triazol-4-yl]-2-(trifluoromethyl)benzamide] | 2.80 | 100 | activity (efficiency by Abbott's formula, number of nematodes in corn roots) ([1]; application rate 2 ppm in soil): 90%; activity (efficiency by Abbott's formula, number of galls in tomato roots) [2]: 100%
5 | CC(=O)NC1=NN(c2c(F)cccc2F)CC1 [Ia-2, N-[1-(2,6-Difluorophenyl)-4,5-dihydro-1H-pyrazol-3-yl]acetamide] | 1.46 | – | –

Continued, in another order:

Row | log P ([5]; HPLC) | Compound | activity (efficiency by Abbott's formula, number of cysts in potato roots) [6] [%] | also measured
6 | 1.33 | CC(=O)Nc1ccn(-c2c(F)cccc2F)n1 [Ia-3, N-[1-(2,6-Difluorophenyl)-1H-pyrazol-3-yl]acetamide] | – | –
7 | 1.13 | Nc1ccn(-c2c(F)cccc2F)n1 [Ia-4, 1-(2,6-Difluorophenyl)-1H-pyrazole-3-amine] | – | –
8 | 0.81 | Nc1ccn(-c2ncc(F)cc2F)n1 [Ib-1, 1-(3,5-Difluoropyridin-2-yl)-1H-pyrazole-3-amine] | – | –
9 | 1.16 | Nc1cnn(-c2c(F)cccc2F)n1 [Ic-8, 2-(2,6-Difluorophenyl)-2H-1,2,3-triazole-4-amine] | – | –
